# Assay results taken from PubChem BioAssay AID256 (DTP/NCI, 2004).
# Several values for one entry are separate records, joined by “and”; a condition that tells them apart may be missing. Equal entries are not always repeated. Toxic doses and inconclusive results are not listed. Non-standard residues stand in square brackets, D forms with d. Residues, ends and D or L forms follow the SMILES beside them. *: point of attachment. Cbz = O=C(OCc1ccccc1)*; Abu = CC[CH](N)C(=O)O
# System: CD2F1 mice, L1210 leukemia ip, survival T/C
# Assay: NCI In Vivo Anticancer Drug Screen. Data for tumor model L1210 Leukemia (intraperitoneal) in CD2F1 (CDF1) mice
# Details: higher = longer survival
# In short: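 Ratio T/C, where T is the treated-group value and C the vehicle-dosed control value, from mice implanted with a transplantable tumor.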
# [1] = endpoint: mean survival time, dose: 12.5 mg/kg/injection, schedule: Q01DX009 (ip), vehicle: saline
# [2] = endpoint: mean survival time, dose: 25.0 mg/kg/injection, schedule: Q01DX009 (ip), vehicle: saline
# [3] = endpoint: mean survival time, dose: 50.0 mg/kg/injection, schedule: Q01DX009 (ip), vehicle: saline
# [4] = endpoint: mean survival time, dose: 100.0 mg/kg/injection, schedule: Q01DX009 (ip), vehicle: saline
# [5] = endpoint: mean survival time, dose: 200.0 mg/kg/injection, schedule: Q01DX009 (ip), vehicle: saline
# [6] = endpoint: mean survival time, dose: 400.0 mg/kg/injection, schedule: Q01DX009 (ip), vehicle: saline
# [7] = endpoint: mean survival time, dose: 100.0 mg/kg/injection, schedule: Q01DX001 (ip), vehicle: saline with Tween-80
# [8] = endpoint: mean survival time, dose: 200.0 mg/kg/injection, schedule: Q01DX001 (ip), vehicle: saline with Tween-80
# [9] = endpoint: mean survival time, dose: 400.0 mg/kg/injection, schedule: Q01DX001 (ip), vehicle: saline with Tween-80
# [10] = endpoint: mean survival time, dose: 100.0 mg/kg/injection, schedule: Q01DX009 (ip), vehicle: saline with Tween-80
# [11] = endpoint: mean survival time, dose: 200.0 mg/kg/injection, schedule: Q01DX009 (ip), vehicle: saline with Tween-80
# [12] = endpoint: mean survival time, dose: 400.0 mg/kg/injection, schedule: Q01DX009 (ip), vehicle: saline with Tween-80
# [13] = endpoint: mean survival time, dose: 100.0 mg/kg/injection, schedule: Q04DX002 (ip), vehicle: saline with Tween-80
# [14] = endpoint: mean survival time, dose: 200.0 mg/kg/injection, schedule: Q04DX002 (ip), vehicle: saline with Tween-80
# [15] = endpoint: mean survival time, dose: 400.0 mg/kg/injection, schedule: Q04DX002 (ip), vehicle: saline with Tween-80
# [16] = endpoint: mean survival time, dose: 75.0 mg/kg/injection, schedule: Q01DX001 (ip), vehicle: saline
# [17] = endpoint: mean survival time, dose: 50.0 mg/kg/injection, schedule: Q01DX009 (ip), vehicle: Klucel (hydroxypropylcellulose) (HPC)
# [18] = endpoint: mean survival time, dose: 100.0 mg/kg/injection, schedule: Q01DX009 (ip), vehicle: Klucel (hydroxypropylcellulose) (HPC)
# [19] = endpoint: mean survival time, dose: 200.0 mg/kg/injection, schedule: Q01DX009 (ip), vehicle: Klucel (hydroxypropylcellulose) (HPC)
smiles,measurement,setting,value
OCC1OC(n2cnc3c(Cl)ncnc32)C(O)C1O (stereo not drawn),T/C,[1],86 % of control
same,T/C,[2],93 % of control
same,T/C,[3],93 % of control
same,T/C,"endpoint: mean survival time, dose: 62.0 mg/kg/injection, schedule: Q01DX Z (ip), vehicle: carboxymethylcellulose (CMC)",97 % of control
same,T/C,[4],98 % of control
same,T/C,"endpoint: mean survival time, dose: 125.0 mg/kg/injection, schedule: Q01DX Z (ip), vehicle: carboxymethylcellulose (CMC)",102 % of control
same,T/C,[5],92 % of control
same,T/C,"endpoint: mean survival time, dose: 250.0 mg/kg/injection, schedule: Q01DX Z (ip), vehicle: carboxymethylcellulose (CMC)",100 % of control
same,T/C,[6],98 % of control
same,T/C,"endpoint: mean survival time, dose: 500.0 mg/kg/injection, schedule: Q01DX Z (ip), vehicle: carboxymethylcellulose (CMC)",96 % of control
same,T/C,"endpoint: median survival time, dose: 62.5 mg/kg/injection, schedule: Q01DX009 (ip), vehicle: saline",94 % of control and 100 % of control
same,T/C,"endpoint: median survival time, dose: 125.0 mg/kg/injection, schedule: Q01DX009 (ip), vehicle: saline",100 % of control
same,T/C,"endpoint: median survival time, dose: 250.0 mg/kg/injection, schedule: Q01DX009 (ip), vehicle: saline",88 % of control and 100 % of control
same,T/C,"endpoint: median survival time, dose: 500.0 mg/kg/injection, schedule: Q01DX009 (ip), vehicle: saline",88 % of control
COC1OC2COc3ccccc3OC2C(NC(=O)Oc2ccccc2)C1O (stereo not drawn),T/C,[7],94 % of control
same,T/C,[8],94 % of control
same,T/C,[9],91 % of control
COc1ccc(F)cc1NC(=O)OC(C)C,T/C,[10],92 % of control
same,T/C,[11],96 % of control
same,T/C,[12],96 % of control
COc1cc2c(c(OC)c1OC)-c1ccc(SC)c(=O)cc1[C@@H](NC(C)=O)CC2,T/C,"endpoint: mean survival time, dose: 0.2 mg/kg/injection, schedule: Q01DX009 (ip), vehicle: Klucel (hydroxypropylcellulose) (HPC)",86 % of control
same,T/C,"endpoint: mean survival time, dose: 0.75 mg/kg/injection, schedule: Q04DX002 (ip), vehicle: Klucel (hydroxypropylcellulose) (HPC)",121 % of control
same,T/C,"endpoint: mean survival time, dose: 3.0 mg/kg/injection, schedule: Q04DX002 (ip), vehicle: Klucel (hydroxypropylcellulose) (HPC)",118 % of control and 95 % of control
same,T/C,"endpoint: mean survival time, dose: 6.0 mg/kg/injection, schedule: Q04DX002 (ip), vehicle: Klucel (hydroxypropylcellulose) (HPC)",97 % of control
CCC(NC(=O)OCc1ccccc1)C(=O)N1CCCC1C(=O)OC (stereo not drawn) (Cbz-[Abu]-Pro-OMe; configuration not given here),T/C,[7],103 % of control
same,T/C,[8],104 % of control
same,T/C,[9],103 % of control
O=C(NCCCl)C(=O)NCCCl,T/C,[13],100 % of control
same,T/C,[14],100 % of control
same,T/C,[15],100 % of control
CCCCCCCCCCCC(C)(O)C#N (stereo not drawn),T/C,"endpoint: mean survival time, dose: 100.0 mg/kg/injection, schedule: Q04DX002 (ip), vehicle: saline",96 % of control
same,T/C,"endpoint: mean survival time, dose: 200.0 mg/kg/injection, schedule: Q04DX002 (ip), vehicle: saline",92 % of control
same,T/C,"endpoint: mean survival time, dose: 400.0 mg/kg/injection, schedule: Q04DX002 (ip), vehicle: saline",100 % of control
COc1cc(OC)cc(C(=O)Cl)c1,T/C,"endpoint: mean survival time, dose: 100.0 mg/kg/injection, schedule: Q04DX003 (ip), vehicle: saline sonified",98 % of control
same,T/C,"endpoint: mean survival time, dose: 200.0 mg/kg/injection, schedule: Q04DX003 (ip), vehicle: saline sonified",95 % of control
same,T/C,"endpoint: mean survival time, dose: 400.0 mg/kg/injection, schedule: Q04DX003 (ip), vehicle: saline sonified",91 % of control
Cc1ccc(S(=O)(=O)Nc2ccc(I)cc2F)cc1,T/C,[10],101 % of control
same,T/C,[11],97 % of control
same,T/C,[12],97 % of control
c1ccc(C[Se]Cc2ccccc2)cc1,T/C,"endpoint: mean survival time, dose: 6.25 mg/kg/injection, schedule: Q01DX009 (ip), vehicle: other",102 % of control
same,T/C,"endpoint: mean survival time, dose: 12.5 mg/kg/injection, schedule: Q01DX009 (ip), vehicle: other",97 % of control
same,T/C,"endpoint: mean survival time, dose: 25.0 mg/kg/injection, schedule: Q01DX009 (ip), vehicle: other",97 % of control
same,T/C,"endpoint: mean survival time, dose: 25.0 mg/kg/injection, schedule: Q04DX003 (ip), vehicle: other",101 % of control
same,T/C,"endpoint: mean survival time, dose: 50.0 mg/kg/injection, schedule: Q04DX003 (ip), vehicle: other",87 % of control
COC(=O)C1=CCCN(C)C1,T/C,[1],98 % of control
same,T/C,[2],104 % of control
same,T/C,[3],98 % of control
COc1cc(OC)cc(C(c2nccc3cc(OC)c(OC)cc23)C(O)(C(F)(F)F)C(F)(F)F)c1 (stereo not drawn),T/C,[7],97 % of control
same,T/C,[10],90 % of control
same,T/C,[8],93 % of control
same,T/C,[11],93 % of control
same,T/C,[9],86 % of control
same,T/C,[12],89 % of control
Nc1nnc(C(F)(F)F)s1,T/C,"endpoint: mean survival time, dose: 100.0 mg/kg/injection, schedule: Q04DX002 (ip), vehicle: Klucel (hydroxypropylcellulose) (HPC)",101 % of control
same,T/C,"endpoint: mean survival time, dose: 200.0 mg/kg/injection, schedule: Q04DX002 (ip), vehicle: Klucel (hydroxypropylcellulose) (HPC)",101 % of control
same,T/C,"endpoint: mean survival time, dose: 400.0 mg/kg/injection, schedule: Q04DX002 (ip), vehicle: Klucel (hydroxypropylcellulose) (HPC)",108 % of control
CSc1sc2cc([N+](=O)[O-])ccc2[n+]1C,T/C,[16],103 % of control
CC1=CC(S)NC(=S)N1 (stereo not drawn),T/C,[13],103 % of control
same,T/C,[14],95 % of control
same,T/C,[15],106 % of control
NNC(=O)CCCO,T/C,[4],102 % of control
same,T/C,[5],101 % of control
same,T/C,[6],102 % of control
C[n+]1ccc(/C=C\Nc2ccccn2)cc1,T/C,[16],103 % of control
same,T/C,"endpoint: mean survival time, dose: 150.0 mg/kg/injection, schedule: Q01DX001 (ip), vehicle: saline",108 % of control
CCN1/C(=C\c2ccc3cc(OC)ccc3[n+]2CC)[Se]c2ccc(OC)cc21,T/C,"endpoint: mean survival time, dose: 9.5 mg/kg/injection, schedule: Q01DX001 (ip), vehicle: other",86 % of control
[N-]=[N+]=CC(=O)NCC(=O)NCCNCCO,T/C,"endpoint: mean survival time, dose: 400.0 mg/kg/injection, schedule: Q01DX009 (ip), vehicle: other",156 % of control
same,T/C,"endpoint: mean survival time, dose: 600.0 mg/kg/injection, schedule: Q01DX009 (ip), vehicle: other",164 % of control
same,T/C,"endpoint: mean survival time, dose: 800.0 mg/kg/injection, schedule: Q01DX009 (ip), vehicle: other",155 % of control
Cc1cccc(/C(=C\c2ccc([N+](=O)[O-])cc2)C(=O)Nc2ccc(S(=O)(=O)F)c(C)c2)c1,T/C,[17],91 % of control
same,T/C,[18],94 % of control
same,T/C,[19],112 % of control
CCCSCCCC(=O)O,T/C,"endpoint: mean survival time, dose: 100.0 mg/kg/injection, schedule: Q04DX003 (ip), vehicle: Klucel (hydroxypropylcellulose) (HPC)",95 % of control
same,T/C,"endpoint: mean survival time, dose: 200.0 mg/kg/injection, schedule: Q04DX003 (ip), vehicle: Klucel (hydroxypropylcellulose) (HPC)",98 % of control
same,T/C,"endpoint: mean survival time, dose: 400.0 mg/kg/injection, schedule: Q04DX003 (ip), vehicle: Klucel (hydroxypropylcellulose) (HPC)",103 % of control
CN(C)/N=N\c1c(C(N)=O)ncn1C1OC(CO)C(O)C1O (stereo not drawn),T/C,"endpoint: mean survival time, dose: 100.0 mg/kg/injection, schedule: Q01DX005 (ip), vehicle: saline",104 % of control
same,T/C,"endpoint: mean survival time, dose: 200.0 mg/kg/injection, schedule: Q01DX005 (ip), vehicle: saline",95 % of control
CCOC(CNC(C)c1ccc2cc(OC)c(OC)cc2c1)OCC (stereo not drawn),T/C,"endpoint: mean survival time, dose: 12.5 mg/kg/injection, schedule: Q01DX009 (ip), vehicle: Klucel (hydroxypropylcellulose) (HPC)",97 % of control
same,T/C,"endpoint: mean survival time, dose: 25.0 mg/kg/injection, schedule: Q01DX009 (ip), vehicle: Klucel (hydroxypropylcellulose) (HPC)",92 % of control
same,T/C,[17],89 % of control
same,T/C,[18],95 % of control
same,T/C,[19],100 % of control
same,T/C,"endpoint: mean survival time, dose: 400.0 mg/kg/injection, schedule: Q01DX009 (ip), vehicle: Klucel (hydroxypropylcellulose) (HPC)",90 % of control
CCCCNc1ncnc2snnc12,T/C,"endpoint: mean survival time, dose: 100.0 mg/kg/injection, schedule: Q01DX001 (ip), vehicle: Klucel (hydroxypropylcellulose) (HPC)",101 % of control
same,T/C,"endpoint: mean survival time, dose: 200.0 mg/kg/injection, schedule: Q01DX001 (ip), vehicle: Klucel (hydroxypropylcellulose) (HPC)",98 % of control
same,T/C,"endpoint: mean survival time, dose: 400.0 mg/kg/injection, schedule: Q01DX001 (ip), vehicle: Klucel (hydroxypropylcellulose) (HPC)",104 % of control
O=C([O][Sb]([O]C(=O)C(Cl)Cl)([c]1ccccc1)([c]1ccccc1)[c]1ccccc1)C(Cl)Cl,T/C,"endpoint: mean survival time, dose: 100.0 mg/kg/injection, schedule: Q04DX003 (ip), vehicle: saline with Tween-80",92 % of control
same,T/C,"endpoint: mean survival time, dose: 200.0 mg/kg/injection, schedule: Q04DX003 (ip), vehicle: saline with Tween-80",88 % of control
